From patent US20260176320A1, “MODULATORS OF G-PROTEIN COUPLED RECEPTORS” (priority 2018, published 2026)
Like-named read-outs stand apart in the source and are kept apart here.

What was measured:
GLP-1R [1] = molecular target: T1, GLP-1R (Homo sapiens, UniProt P43220); assay: HitHunter cAMP assay (GLP-1R); assay type: cell-based; details: cAMP; for Emax: read-out: (Emax) GLP-1R; for EC50: read-out: EC50 GLP-1R/nM
Method in brief: (§1)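 Suspension cells (10,000/well) in HBSS with 10 mM HEPES, 625 μM IBMX, 0.2% BSA exposed to 22-point 2-fold agonist series in duplicate for 30 min at room temperature. cAMP measured by antibody immunocompetition with overnight development, luminescence read-out.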

mice = assay: Glucose tolerance test (GTT); assay type: in vivo, mouse; details: 24 h GTT, s.c., dose range 2-5 nmol/kg, percent of vehicle
Method: Freestyle Lite glucometer and strips; compounds to be tested; sterilized glucose solution 200 mg/ml.
Compounds were diluted in PBS from the 1 mM DMSO stocks right before injection. Body weight and baseline blood glucose level for each mouse were measured. Tails were snipped using sterile scissors; blood from tails was used to measure glucose. For 0.25 h GTT, mice were fasted for 5-6 h and injected with compound subcutaneously 15 mins before glucose injection. For 4 h GTT, mice were fasted O/N for 16 h and injected with compound subcutaneously 4 h before glucose injection. For 16 h GTT, mice were injected with compound subcutaneously 16 h before glucose injection; food was removed at the same time. For 24 h GTT, mice were injected with compound subcutaneously 24 h before glucose injection; food was removed 5-6 h before glucose injection. 20% glucose in water was prepared; the solution was sterilized by 0.2 μm-filtration. An intraperitoneal injection of glucose (2 g/kg) was given to the mouse. Continued to take blood samples from the tail. Blood glucose was measured at 10, 20, 30, 40, 60, 90, and 120 minutes after glucose injection. Between each of these time points, the mouse was returned to its cage and monitored (at least 6 replicate mice were used for each time-point). The average glucose measurements were plotted as a function of time and the area under the curve (AUC) was determined.

GIP-R = molecular target: T2, GIP-R (Homo sapiens, UniProt P48546); assay: HitHunter cAMP assay (GIP-R); assay type: cell-based; details: cAMP; for Emax: read-out: (Emax) GIP-R; for EC50: read-out: EC50 GIP-R/nM
T2 sequence (P48546 22-466): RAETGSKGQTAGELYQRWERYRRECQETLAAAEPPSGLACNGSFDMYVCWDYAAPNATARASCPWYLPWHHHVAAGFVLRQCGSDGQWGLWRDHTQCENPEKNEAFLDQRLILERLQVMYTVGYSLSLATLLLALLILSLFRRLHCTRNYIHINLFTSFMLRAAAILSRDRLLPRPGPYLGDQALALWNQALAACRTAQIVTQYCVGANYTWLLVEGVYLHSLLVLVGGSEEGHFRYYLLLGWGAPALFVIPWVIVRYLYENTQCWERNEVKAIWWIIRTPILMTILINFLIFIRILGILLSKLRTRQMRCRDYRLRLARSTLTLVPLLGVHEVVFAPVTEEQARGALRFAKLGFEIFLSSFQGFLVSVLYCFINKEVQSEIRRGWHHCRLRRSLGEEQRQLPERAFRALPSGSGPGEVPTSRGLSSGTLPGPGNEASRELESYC
Method in brief: as §1

GLP-1R [2] = molecular target: T1, GLP-1R; assay: PathHunter β-arrestin assay; assay type: cell-based; details: PathHunter β-arrestin assay; read-out: β-arrestin activity EC50
Method in brief: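 Cells (5,000/well) plated overnight, then exposed to a 22-point 2-fold agonist dilution series in medium with 0.2% BSA for 90 min at 37 °C, 5% CO2. PathHunter detection reagent added; after 3 h at room temperature in the dark, luminescence read.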

T1 sequence (P43220 24-463): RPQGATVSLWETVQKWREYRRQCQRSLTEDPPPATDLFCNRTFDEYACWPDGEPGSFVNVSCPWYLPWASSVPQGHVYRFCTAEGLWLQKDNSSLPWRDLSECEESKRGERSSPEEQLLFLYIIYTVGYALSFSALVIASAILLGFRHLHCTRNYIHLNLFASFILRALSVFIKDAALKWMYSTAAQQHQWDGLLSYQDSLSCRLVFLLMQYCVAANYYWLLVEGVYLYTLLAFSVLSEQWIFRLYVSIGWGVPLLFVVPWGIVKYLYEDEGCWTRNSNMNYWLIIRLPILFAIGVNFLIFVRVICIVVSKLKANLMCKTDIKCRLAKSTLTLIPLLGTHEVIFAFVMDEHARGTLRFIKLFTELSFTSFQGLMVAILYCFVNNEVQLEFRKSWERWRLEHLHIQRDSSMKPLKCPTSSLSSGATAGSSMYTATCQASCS

Row | Structure (SMILES) | Emax (GLP-1R [1]; Table 3) | EC50 (GLP-1R [1]; Table 3) | Emax (GLP-1R [1]; Table 3A) | EC50 (GLP-1R [1]; Table 3A) | AUC score (mice) | Emax (GIP-R; Table 3) | EC50 (GIP-R; Table 3) | Emax (GIP-R; Table 3A) | EC50 (GIP-R; Table 3A) | EC50 (GLP-1R [2]) | (Emax) GLP-1R (GLP-1R [1]; Table 3) | (Emax) GLP-1R (GLP-1R [1]; Table 3A) | (Emax) GIP-R (GIP-R; Table 3) | (Emax) GIP-R (GIP-R; Table 3A)
1 | CCCCCCCCCCCCCCCC(=O)N[C@@H](CCC(=O)NCCCC[C@H](NC(=O)[C@H](CO)NC(=O)[C@@H]1CCCN1C(=O)[C@@H]1CCCN1C(=O)[C@@H]1CCCN1C(=O)[C@H](C)NC(=O)CNC(=O)[C@H](CO)NC(=O)[C@H](CO)NC(=O)[C@@H]1CCCN1C(=O)CNC(=O)CNC(=O)[C@H](C)NC(=O)[C@H](CC(C)C)NC(=O)[C@H](CC(C)C)NC(=O)[C@H](Cc1c[nH]c2ccccc12)NC(=O)[C@H](CC(N)=O)NC(=O)[C@@H](NC(=O)[C@H](Cc1ccccc1)NC(=O)[C@H](CCC(=O)O)NC(=O)C(C)(C)NC(=O)[C@H](C)NC(=O)[C@H](C)NC(=O)[C@H](CCC(N)=O)NC(=O)[C@H](CCCCN)NC(=O)[C@H](CC(=O)O)NC(=O)[C@H](CC(C)C)NC(=O)[C@H](Cc1ccc(O)cc1)NC(=O)[C@@H](NC(=O)[C@H](CO)NC(=O)[C@H](Cc1ccc(O)cc1)NC(=O)[C@H](CC(=O)O)NC(=O)[C@H](CO)NC(=O)[C@@H](NC(=O)[C@H](Cc1ccccc1)NC(=O)[C@@H](NC(=O)CNC(=O)[C@H](CCC(=O)O)NC(=O)CSCC(=O)NCCN1C(=O)CCC1=O)[C@@H](C)O)[C@@H](C)O)[C@@H](C)CC)C(C)C)C(N)=O)C(=O)O [Compound 114] | 94 to 103% | 0.1 to 10 nM | 94 to 103% | 0.1 to 10 nM | 3 (AUC score 3 = 51-75%) | 42 to 63% | 1 to 10 nM | 42 to 63% | 1 to 10 nM | > 1000 nM | – | – | – | –
2 | CCCCCCCCCCCCCCCC(=O)N[C@@H](CCC(=O)NCCCC[C@H](NC(=O)[C@H](CO)NC(=O)[C@@H]1CCCN1C(=O)[C@@H]1CCCN1C(=O)[C@@H]1CCCN1C(=O)[C@H](C)NC(=O)CNC(=O)[C@H](CO)NC(=O)[C@H](CO)NC(=O)[C@@H]1CCCN1C(=O)CNC(=O)CNC(=O)[C@H](C)NC(=O)[C@H](CC(C)C)NC(=O)[C@H](CC(C)C)NC(=O)[C@H](Cc1c[nH]c2ccccc12)NC(=O)[C@H](CC(N)=O)NC(=O)[C@@H](NC(=O)[C@H](Cc1ccccc1)NC(=O)[C@H](CCC(=O)O)NC(=O)C(C)(C)NC(=O)[C@H](C)NC(=O)[C@H](C)NC(=O)[C@H](CCC(N)=O)NC(=O)[C@H](CCCCN)NC(=O)[C@H](CC(=O)O)NC(=O)[C@H](CC(C)C)NC(=O)[C@H](Cc1ccc(O)cc1)NC(=O)[C@@H](NC(=O)[C@H](CO)NC(=O)[C@H](Cc1ccc(O)cc1)NC(=O)[C@H](CC(=O)O)NC(=O)[C@H](CO)NC(=O)[C@@H](NC(=O)[C@H](Cc1ccccc1)NC(=O)[C@@H](NC(=O)CNC(=O)[C@H](CCC(=O)O)NC(=O)CNC(=O)CN1CCCCC1=O)[C@@H](C)O)[C@@H](C)O)[C@@H](C)CC)C(C)C)C(N)=O)C(=O)O [Compound 2] | 99% | < 0.1 nM | 99% | < 0.1 nM | 2 (AUC score 2 = 26-50%) | 46% | 1 to 10 nM | 46% | 1 to 10 nM | > 1000 nM | – | – | – | –
3 | CCCCCCCCCCCCCCCC(=O)N[C@@H](CCC(=O)NCCCC[C@H](NC(=O)[C@H](CO)NC(=O)[C@@H]1CCCN1C(=O)[C@@H]1CCCN1C(=O)[C@@H]1CCCN1C(=O)[C@H](C)NC(=O)CNC(=O)[C@H](CO)NC(=O)[C@H](CO)NC(=O)[C@@H]1CCCN1C(=O)CNC(=O)CNC(=O)[C@H](C)NC(=O)[C@H](CC(C)C)NC(=O)[C@H](CC(C)C)NC(=O)[C@H](Cc1c[nH]c2ccccc12)NC(=O)[C@H](CC(N)=O)NC(=O)[C@@H](NC(=O)[C@H](Cc1ccccc1)NC(=O)[C@H](CCC(=O)O)NC(=O)C(C)(C)NC(=O)[C@H](C)NC(=O)[C@H](C)NC(=O)[C@H](CCC(N)=O)NC(=O)[C@H](CCCCN)NC(=O)[C@H](CC(=O)O)NC(=O)[C@H](CC(C)C)NC(=O)[C@H](Cc1ccc(O)cc1)NC(=O)[C@@H](NC(=O)[C@H](CO)NC(=O)[C@H](Cc1ccc(O)cc1)NC(=O)[C@H](CC(=O)O)NC(=O)[C@H](CO)NC(=O)[C@@H](NC(=O)[C@H](Cc1ccccc1)NC(=O)[C@@H](NC(=O)CNC(=O)[C@H](CCC(=O)O)NC(=O)CSCC(=O)NCCN1CCC(C)C1=O)[C@@H](C)O)[C@@H](C)O)[C@@H](C)CC)C(C)C)C(N)=O)C(=O)O (single isomer, unassigned) [Compound 69] | – | 0.1 to 1 nM | – | 0.1 to 1 nM | 2 (AUC score 2 = 26-50%) | – | 1 to 10 nM | – | 1 to 10 nM | > 1000 nM | 104% | 104% | 75% | 75%
4 | CCCCCCCCCCCCCCCC(=O)N[C@@H](CCC(=O)NCCCC[C@H](NC(=O)[C@H](CO)NC(=O)[C@@H]1CCCN1C(=O)[C@@H]1CCCN1C(=O)[C@@H]1CCCN1C(=O)[C@H](C)NC(=O)CNC(=O)[C@H](CO)NC(=O)[C@H](CO)NC(=O)[C@@H]1CCCN1C(=O)CNC(=O)CNC(=O)[C@H](C)NC(=O)[C@H](CC(C)C)NC(=O)[C@H](CC(C)C)NC(=O)[C@H](Cc1c[nH]c2ccccc12)NC(=O)[C@H](CC(N)=O)NC(=O)[C@@H](NC(=O)[C@H](Cc1ccccc1)NC(=O)[C@H](CCC(=O)O)NC(=O)C(C)(C)NC(=O)[C@H](C)NC(=O)[C@H](C)NC(=O)[C@H](CCC(N)=O)NC(=O)[C@H](CCCCN)NC(=O)[C@H](CC(=O)O)NC(=O)[C@H](CC(C)C)NC(=O)[C@H](Cc1ccc(O)cc1)NC(=O)[C@@H](NC(=O)[C@H](CO)NC(=O)[C@H](Cc1ccc(O)cc1)NC(=O)[C@H](CC(=O)O)NC(=O)[C@H](CO)NC(=O)[C@@H](NC(=O)[C@H](Cc1ccccc1)NC(=O)[C@@H](NC(=O)CNC(=O)[C@H](CCC(=O)O)NC(=O)CCNC(=O)CN1CCCCC1=O)[C@@H](C)O)[C@@H](C)O)[C@@H](C)CC)C(C)C)C(N)=O)C(=O)O [Compound 5] | 95% | < 0.1 nM | 95% | < 0.1 nM | 2 (AUC score 2 = 26-50%) | 74% | 1 to 10 nM | 74% | 1 to 10 nM | 10 to 1000 nM | – | – | – | –
5 | CCCCCCCCCCCCCCCC(=O)N[C@@H](CCC(=O)NCCCC[C@H](NC(=O)[C@H](CO)NC(=O)[C@@H]1CCCN1C(=O)[C@@H]1CCCN1C(=O)[C@@H]1CCCN1C(=O)[C@H](C)NC(=O)CNC(=O)[C@H](CO)NC(=O)[C@H](CO)NC(=O)[C@@H]1CCCN1C(=O)CNC(=O)CNC(=O)[C@H](C)NC(=O)[C@H](CC(C)C)NC(=O)[C@H](CC(C)C)NC(=O)[C@H](Cc1c[nH]c2ccccc12)NC(=O)[C@H](CC(N)=O)NC(=O)[C@@H](NC(=O)[C@H](Cc1ccccc1)NC(=O)[C@H](CCC(=O)O)NC(=O)C(C)(C)NC(=O)[C@H](C)NC(=O)[C@H](C)NC(=O)[C@H](CCC(N)=O)NC(=O)[C@H](CCCCN)NC(=O)[C@H](CC(=O)O)NC(=O)[C@H](CC(C)C)NC(=O)[C@H](Cc1ccc(O)cc1)NC(=O)[C@@H](NC(=O)[C@H](CO)NC(=O)[C@H](Cc1ccc(O)cc1)NC(=O)[C@H](CC(=O)O)NC(=O)[C@H](CO)NC(=O)[C@@H](NC(=O)[C@H](Cc1ccccc1)NC(=O)[C@@H](NC(=O)CNC(=O)[C@H](CCC(=O)O)NC(=O)CSCC(=O)NCCN1CCCCC1=O)[C@@H](C)O)[C@@H](C)O)[C@@H](C)CC)C(C)C)C(N)=O)C(=O)O [Compound 65] | 96% | 0.1 to 1 nM | 96% | 0.1 to 1 nM | 2 (AUC score 2 = 26-50%) | 42% | 1 to 10 nM | 42% | 1 to 10 nM | > 1000 nM | – | – | – | –
